# Target: T1, human chemokine receptor 2 isoform B (Homo sapiens, UniProt P41597)
# T1 construct: host or cells: CHOK1-CCR2B-A5 cells (CHO-K1)
# T1 sequence (P41597 1-360 isoform P41597-2): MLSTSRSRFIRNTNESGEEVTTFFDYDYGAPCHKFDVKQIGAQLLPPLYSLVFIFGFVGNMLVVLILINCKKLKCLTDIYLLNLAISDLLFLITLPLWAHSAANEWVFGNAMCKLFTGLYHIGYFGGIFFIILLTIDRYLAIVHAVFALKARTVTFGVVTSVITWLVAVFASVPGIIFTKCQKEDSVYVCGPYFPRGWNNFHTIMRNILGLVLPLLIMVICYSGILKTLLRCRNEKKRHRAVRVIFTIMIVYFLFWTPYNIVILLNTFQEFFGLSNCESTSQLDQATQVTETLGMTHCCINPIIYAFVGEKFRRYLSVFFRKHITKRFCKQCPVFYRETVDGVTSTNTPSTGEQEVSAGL
# Assay: Calcium mobilization assay (FLIPR, antagonist activity against MCP-1)
# Format: cell-based
# Settings: Ca mobilisation assay, CHOK1-CCR2B-A5 cells, inhibition of calcium increase induced by 20 nM MCP-1
# Method: Calcium Mobilization Assay
# CHOK1-CCR2B-A5 cells (from Euroscreen) stably overexpressing the human chemokine receptor 2 isoform B were cultured in Nutrient Hams F12 medium supplemented with 5% FBS, 100 U/ml penicillin, 100 μg/ml streptomycin, 400 μg/ml G418 and 5 μg/ml puromycin.
# For the assay cells were grown overnight in 384-well black clear flat bottom polystyrene plates (Costar) at 37° C. at 5% CO2. After washing with DMEM, 20 mM Hepes, 2.5 mM probenecid, 0.1% BSA (DMEM assay buffer) cells were loaded with 4 μM Fluo-4 in the same DMEM assay buffer for 2 hours at 30° C. Excess dye was removed and cells were washed with DMEM assay buffer. 384-well compound plates were prepared with DMEM assay buffer/0.5% DMSO with or without various concentrations of test compounds. Usually compounds were tested for agonist and antagonist activity.
# Test compounds were added to the assay plate and agonist activity was monitored as fluorescence for 80 seconds with a FLIPR (488 nm excitation; 510-570 nm emission; Molecular Devices). After 20-30 min. of incubation at 30° C., 20 nM MCP-1 (R&D; Roche) was added and fluorescence was monitored again for 80 seconds. Increases in intracellular calcium are reported as maximum fluorescence after agonist exposure minus basal fluorescence before exposure. Antagonist activity is indicated as inhibitor concentration required for 50% inhibition of specific calcium increases.
row,Structure (SMILES),IC50
1,"C[C@H]1C(=O)N(CCCC(=O)N2CCC3(CC3)[C@H](O)C2)CCN1C(=O)Nc1ccc(C(F)(F)F)c(Cl)c1 [Example 33, (S)-4-[4-((S)-4-Hydroxy-6-aza-spiro[2.5]oct-6-yl)-4-oxo-butyl]-2-methyl-3-oxo-piperazine-1-carboxylic acid (3-chloro-4-trifluoromethyl-phenyl)-amide]",4.4 nM
2,"C[C@H]1C(=O)N(CCCC(=O)N2CCC3(CC3)[C@H](O)C2)CCN1C(=O)Nc1ccc(OC(F)(F)F)c(Cl)c1 [Example 34, (S)-4-[4-((S)-4-Hydroxy-6-aza-spiro[2.5]oct-6-yl)-4-oxo-butyl]-2-methyl-3-oxo-piperazine-1-carboxylic acid (3-chloro-4-trifluoromethoxy-phenyl)-amide]",1.7 nM
3,"C[C@H]1C(=O)N(CCCC(=O)N2CCC3(CC3)[C@H](O)C2)CCN1C(=O)Nc1ccc(Cl)c(OC(F)(F)F)c1 [Example 35, (S)-4-[4-((S)-4-Hydroxy-6-aza-spiro[2.5]oct-6-yl)-4-oxo-butyl]-2-methyl-3-oxo-piperazine-1-carboxylic acid (4-chloro-3-trifluoromethoxy-phenyl)-amide]",4.9 nM
4,"C[C@H]1C(=O)N(CCCC(=O)N2CCC3(CC2)COC3)CCN1C(=O)Nc1cccc(Cl)c1 [Example 36, (S)-2-Methyl-4-[4-(2-oxa-7-aza-spiro[3.5]non-7-yl)-4-oxo-butyl]-3-oxo-piperazine-1-carboxylic acid (3-chloro-phenyl)-amide]",2340 nM
5,"C[C@H]1C(=O)N(CCCC(=O)N2CCC(C)(C)[C@H](O)C2)CCN1C(=O)Nc1ccc(Cl)c(Cl)c1 [Example 38, (S)-4-[4-((S)-3-hydroxy-4,4-dimethyl-piperidin-1-yl)-4-oxo-butyl]-2-methyl-3-oxo-piperazine-1-carboxylic acid (3,4-dichloro-phenyl)-amide]",21.9 nM
6,"C[C@H]1C(=O)N(CC(O)CC(=O)N2CCC3(CC3)[C@H](O)C2)CCN1C(=O)Nc1ccc(Cl)c(Cl)c1 (stereo partly drawn) [Example 40, (S)-4-[(R,S)-2-Hydroxy-4-((S)-4-hydroxy-6-aza-spiro[2.5]oct-6-yl)-4-oxo-butyl]-2-methyl-3-oxo-piperazine-1-carboxylic acid (3,4-dichloro-phenyl)-amide]",7.6 nM
7,"C[C@H]1C(=O)N(CC(O)CC(=O)N2CCC3(CC3)[C@H](O)C2)CCN1C(=O)Nc1ccc(C(F)(F)F)c(Cl)c1 (stereo partly drawn) [Example 41, (S)-4-[(R,S)-2-Hydroxy-4-((S)-4-hydroxy-6-aza-spiro[2.5]oct-6-yl)-4-oxo-butyl]-2-methyl-3-oxo-piperazine-1-carboxylic acid (3-chloro-4-trifluoromethyl-phenyl)-amide]",5.6 nM
8,"C[C@H]1C(=O)N(C[C@@H](O)CC(=O)N2CCC3(CC3)[C@H](O)C2)CCN1C(=O)Nc1ccc(C(F)(F)F)c(Cl)c1 [Example 42, (S)-4-[(S)-2-Hydroxy-4-((S)-4-hydroxy-6-aza-spiro[2.5]oct-6-yl)-4-oxo-butyl]-2-methyl-3-oxo-piperazine-1-carboxylic acid (3-chloro-4-trifluoromethyl-phenyl)-amide]",8.2 nM
9,"C[C@H]1C(=O)N(C[C@H](O)CC(=O)N2CCC3(CC3)[C@H](O)C2)CCN1C(=O)Nc1ccc(C(F)(F)F)c(Cl)c1 [Example 43, (S)-4-[(R)-2-Hydroxy-4-((S)-4-hydroxy-6-aza-spiro[2.5]oct-6-yl)-4-oxo-butyl]-2-methyl-3-oxo-piperazine-1-carboxylic acid (3-chloro-4-trifluoromethyl-phenyl)-amide]",4 nM
10,"C[C@H]1C(=O)N(CC(O)CC(=O)N2CCC3(CC3)[C@H](O)C2)CCN1C(=O)Nc1ccc(OC(F)(F)F)c(Cl)c1 (stereo partly drawn) [Example 44, (S)-4-[(R,S)-2-Hydroxy-4-((S)-4-hydroxy-6-aza-spiro[2.5]oct-6-yl)-4-oxo-butyl]-2-methyl-3-oxo-piperazine-1-carboxylic acid (3-chloro-4-trifluoromethoxy-phenyl)-amide]",2.7 nM
11,"C[C@H]1C(=O)N(C[C@@H](O)CC(=O)N2CCC3(CC3)[C@H](O)C2)CCN1C(=O)Nc1ccc(OC(F)(F)F)c(Cl)c1 [Example 45, (S)-4-[(S)-2-hydroxy-4-((S)-4-hydroxy-6-aza-spiro[2.5]oct-6-yl)-4-oxo-butyl]-2-methyl-3-oxo-piperazine-1-carboxylic acid (3-chloro-4-trifluoromethoxy-phenyl)-amide]",2 nM
12,"C[C@H]1C(=O)N(C[C@H](O)CC(=O)N2CCC3(CC3)[C@H](O)C2)CCN1C(=O)Nc1ccc(OC(F)(F)F)c(Cl)c1 [Example 46, (S)-4-[(R)-2-hydroxy-4-((S)-4-hydroxy-6-aza-spiro[2.5]oct-6-yl)-4-oxo-butyl]-2-methyl-3-oxo-piperazine-1-carboxylic acid (3-chloro-4-trifluoromethoxy-phenyl)-amide]",4.2 nM
13,"C[C@H]1C(=O)N(CC(O)CC(=O)N2CCC3(CC3)[C@H](O)C2)CCN1C(=O)Nc1ccc(C(F)(F)F)c(C(F)(F)F)c1 (stereo partly drawn) [Example 47, (S)-4-[(R,S)-2-Hydroxy-4-((S)-4-hydroxy-6-aza-spiro[2.5]oct-6-yl)-4-oxo-butyl]-2-methyl-3-oxo-piperazine-1-carboxylic acid (3,4-bis-trifluoromethyl-phenyl)-amide]",5.4 nM
14,"C[C@H]1C(=O)N(C[C@@H](O)CC(=O)N2CCC3(CC3)[C@H](O)C2)CCN1C(=O)Nc1ccc(C(F)(F)F)c(C(F)(F)F)c1 [Example 48, (S)-4-[(S)-2-Hydroxy-4-((S)-4-hydroxy-6-aza-spiro[2.5]oct-6-yl)-4-oxo-butyl]-2-methyl-3-oxo-piperazine-1-carboxylic acid (3,4-bis-trifluoromethyl-phenyl)-amide]",2.4 nM
15,"C[C@H]1C(=O)N(C[C@H](O)CC(=O)N2CCC3(CC3)[C@H](O)C2)CCN1C(=O)Nc1ccc(C(F)(F)F)c(C(F)(F)F)c1 [Example 49, (S)-4-[(R)-2-hydroxy-4-((S)-4-hydroxy-6-aza-spiro[2.5]oct-6-yl)-4-oxo-butyl]-2-methyl-3-oxo-piperazine-1-carboxylic acid (3,4-bis-trifluoromethyl-phenyl)-amide]",5.8 nM
16,"C[C@H]1C(=O)N(CCC(C)(C)C(=O)N2CCC3(CC3)[C@H](O)C2)CCN1C(=O)Nc1ccc(C(F)(F)F)c(Cl)c1 [Example 50, (S)-4-[4-((S)-4-Hydroxy-6-aza-spiro[2.5]oct-6-yl)-3,3-dimethyl-4-oxo-butyl]-2-methyl-3-oxo-piperazine-1-carboxylic acid (3-chloro-4-trifluoromethyl-phenyl)-amide]",1140 nM
17,"C[C@H]1C(=O)N(CCC(C)(C)C(=O)N2CCC3(CC3)[C@H](O)C2)CCN1C(=O)Nc1ccc(OC(F)(F)F)c(Cl)c1 [Example 51, (S)-4-[4-((S)-4-Hydroxy-6-aza-spiro[2.5]oct-6-yl)-3,3-dimethyl-4-oxo-butyl]-2-methyl-3-oxo-piperazine-1-carboxylic acid (3-chloro-4-trifluoromethoxy-phenyl)-amide]",750 nM
18,"COC(=O)[C@H](CCC(=O)N1CCC2(CC2)[C@H](O)C1)N1CCN(C(=O)Nc2ccc(C(F)(F)F)c(Cl)c2)[C@@H](C)C1=O [Example 52, (S)-2-[(S)-4-(3-Chloro-4-trifluoromethyl-phenylcarbamoyl)-3-methyl-2-oxo-piperazin-1-yl]-5-((S)-4-hydroxy-6-aza-spiro[2.5]oct-6-yl)-5-oxo-pentanoic acid methyl ester]",738 nM

# From patent US8445674B2, “Heterocyclyl compounds” (Hoffmann-La Roche Inc, priority 2009, dated 2013)
